Data: ChEMBL document CHEMBL1155531, “Structure guided design of 5-arylindazole glucocorticoid receptor agonists and antagonists” (J Med Chem, 2010)

What was measured:
Progesterone receptor = target: T1, Progesterone receptor (Homo sapiens, UniProt P06401); assay: Binding affinity to PR
T1 sequence (P06401 whole entry): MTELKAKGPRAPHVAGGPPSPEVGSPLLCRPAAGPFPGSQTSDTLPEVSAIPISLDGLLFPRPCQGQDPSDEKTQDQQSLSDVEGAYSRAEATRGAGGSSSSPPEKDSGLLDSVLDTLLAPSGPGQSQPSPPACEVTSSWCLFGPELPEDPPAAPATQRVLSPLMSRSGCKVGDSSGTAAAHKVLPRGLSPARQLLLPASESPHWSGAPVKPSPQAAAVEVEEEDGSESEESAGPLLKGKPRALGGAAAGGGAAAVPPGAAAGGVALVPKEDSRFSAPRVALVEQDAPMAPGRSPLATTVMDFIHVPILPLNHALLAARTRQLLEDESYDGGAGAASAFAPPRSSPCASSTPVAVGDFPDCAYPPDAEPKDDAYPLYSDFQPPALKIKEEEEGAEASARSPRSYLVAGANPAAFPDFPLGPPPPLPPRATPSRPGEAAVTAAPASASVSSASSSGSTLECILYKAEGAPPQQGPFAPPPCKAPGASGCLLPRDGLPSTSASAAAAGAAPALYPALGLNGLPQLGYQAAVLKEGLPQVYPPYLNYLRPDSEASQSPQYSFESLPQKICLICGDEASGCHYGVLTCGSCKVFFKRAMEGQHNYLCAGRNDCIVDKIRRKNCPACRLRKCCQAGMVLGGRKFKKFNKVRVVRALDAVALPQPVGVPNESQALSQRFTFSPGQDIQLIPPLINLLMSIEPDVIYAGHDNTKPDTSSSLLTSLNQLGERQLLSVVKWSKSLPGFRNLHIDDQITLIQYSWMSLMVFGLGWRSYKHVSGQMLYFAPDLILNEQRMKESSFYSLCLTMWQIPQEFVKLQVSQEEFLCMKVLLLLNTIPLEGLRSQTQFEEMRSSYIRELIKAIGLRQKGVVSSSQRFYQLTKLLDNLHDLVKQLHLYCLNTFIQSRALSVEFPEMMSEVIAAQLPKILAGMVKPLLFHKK

[1] = Antiinflammatory activity in human primary synovial fibroblasts assessed as inhibition of IL1-induced IL6 release after 18 hrs by MSD technology; type: functional
[2] = Antiinflammatory activity in human primary synovial fibroblasts assessed as inhibition of IL1-induced MMP1 release after 18 hrs by MSD technology; type: functional
[3] = Volume of distribution at steady state in CD rat at 1 mg/kg, po and 1 mg/kg, iv; type: ADME, organism-based; conditions: in vivo, read-out: Vdss
[4] = Volume of distribution at steady state in DBA1 mouse at 1 mg/kg, po and 1 mg/kg, iv; type: ADME, organism-based; conditions: in vivo, read-out: Vdss
[5] = Plasma concentration in mouse bearing mouse NIH-3T3 cells integrated with MMTV reporter gene at 1 mg/kg, po after 1 hr; type: ADME, organism-based, NIH3T3; set-up: dose 1 mg/kg, route oral
[6] = Relative fraction unbound in mouse assessed as ratio of fraction unbound in mouse at 0.1 mg/kg, po to IC50 for NF-kappaB transrepression activity in A549 cells expressing MMTV reporter gene; type: ADME, organism-based; set-up: dose 0.1 mg/kg, route oral; conditions: in vivo
[7] = Plasma concentration in mouse bearing mouse NIH-3T3 cells integrated with MMTV reporter gene at 100 mg/kg, po after 1 hr; type: ADME, organism-based, NIH3T3; set-up: dose 100 mg/kg, route oral
Mus musculus [8] = assay: Inhibition of IL1-induced circulating IL6 release in mouse at 1 mg/kg, po; type: functional
Mus musculus [9] = assay: Inhibition of IL1-induced circulating IL6 release in mouse at 0.1 mg/kg, po; type: functional

## O=S(=O)(Cc1ccccc1)Nc1ccc(-c2ccc3c(cnn3-c3ccc(F)cc3)c2)c(C(F)(F)F)c1
Progesterone receptor
  IC50: > 10000 nM
[1]
  IC50: 3.16 nM
[2]
  IC50: 1.26 nM
[3]
  Vd: 2 L/kg
[4]
  Vd: 1.8 L/kg
[5]
  concentration at 1 h: 0.29 µM
[6]
  fold change (FC): 0.005
[7]
  concentration at 1 h: 12.1 µM
Mus musculus [8]
  inhibition in vivo at 1 mg/kg: 0%
Mus musculus [9]
  inhibition in vivo at 0.1 mg/kg: 0%
